Test results taken from PMC13237142, “Proteome-wide quantification of inositol pyrophosphate-protein interactions” (Nature Communications, 2026).
One block for each compound: values may come before it.

Experiments:
XPR1 = conditions: compared with InsP6 and 5PP-InsP5; cited from earlier work
[1] = in the presence of Mg^2+ ions; cited from earlier work
PMVK = biological target: T1, PMVK (Homo sapiens, UniProt Q15126); assay: Isothermal titration calorimetry with recombinant PMVK; assay type: binding; conditions: ITC, 25 °C, 50 μM protein, 500 μM ligand, buffer pH 7.4 with 1 mM MgCl2; triplicate
T1 construct: 6xHis (N, cleaved yes); V5 (N, cleaved yes); made in house; host or cells: E. coli BL21 (DE3)
T1 sequence (Q15126 1-192): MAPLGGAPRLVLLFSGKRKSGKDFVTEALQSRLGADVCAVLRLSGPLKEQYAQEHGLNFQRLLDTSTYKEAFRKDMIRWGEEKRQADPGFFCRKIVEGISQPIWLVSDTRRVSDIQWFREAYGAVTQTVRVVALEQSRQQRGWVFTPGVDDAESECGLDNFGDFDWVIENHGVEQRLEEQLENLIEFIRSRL
Experimental: Protein stocks were subjected to buffer exchange using final buffer conditions: 25 mM HEPES, pH 7.4, 150 mM KCl, 1 mM MgCl2, 40 mM NaCl, 0.5 mM TCEP (ITC buffer). The exact protein concentration was determined by BCA assay and adjusted to 50 μM. […] ITC experiments were carried out at 25 °C in a MicroCal PEAQ-ITC calorimeter (Malvern Panalytical GmbH, Kassel, Germany), with ca. 50 μM protein in the cell and 500 μM ligand in the syringe. InsPs were titrated into the solution in nineteen 2 μL-steps. Spacing between injections was 150 s. The corresponding instrument software (MicroCal PEAQ-ITC Analysis) was used for baseline correction, peak integration, data fitting and determination of binding parameters. All experiments were carried out in triplicate.

MMTAG2 = biological target: T2, MMTAG2 (Homo sapiens, UniProt Q9BU76); assay: KDapp by affinity enrichment/TMT-MS; assay type: binding; conditions: Mg^2+nucl HEK293T lysate; read-out: KD^app
T2 construct: endogenous in cells; host or cells: HEK293T nuclear fraction (Mg2+)
T2 sequence (Q9BU76 whole entry): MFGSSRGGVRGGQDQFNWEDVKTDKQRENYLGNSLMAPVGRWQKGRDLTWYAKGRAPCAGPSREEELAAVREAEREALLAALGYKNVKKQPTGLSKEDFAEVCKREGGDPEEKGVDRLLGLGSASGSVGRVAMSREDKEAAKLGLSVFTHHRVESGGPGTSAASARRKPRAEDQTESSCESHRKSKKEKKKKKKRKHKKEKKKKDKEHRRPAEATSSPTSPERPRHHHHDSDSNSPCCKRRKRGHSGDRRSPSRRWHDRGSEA
Experimental: (§1) Cells were lysed using two different lysis buffers (containing either 1 mM EDTA or containing 1 mM Mg^2+), and the lysates were separated into nuclear and cytosolic fractions to provide deeper proteome coverage (Supplementary Fig. 8). […] Following quick washing steps, the retained proteins were eluted with an excess of the corresponding free ligand. The samples were digested with trypsin, followed by 11-plex TMT isobaric labeling, subsequent sample pooling, and LC-MS/MS analysis. To ensure robustness of the datasets, the experiments were performed in biological triplicates, and only proteins fully quantified in at least two replicates were further analyzed. […] In addition, model validity was assessed by an F-test comparing the Hill-like fit to a null model, and only proteins with statistically significant fits (p ≤ 0.05) were considered. Furthermore, a cutoff of log2 fold-change ≥ 1 between the endpoints was applied (Supplementary Data 1).
(§2) Cells were washed twice with ice-cold 0.9 mM NaCl in H2O (10 mL), carefully scraped off, added to protein low-binding microcentrifuge tubes, and ice-cold PBS (1 mL) was added. The cells were pelleted for 2 min, 250 g at 4 °C, and the supernatant was removed. The pellet was washed twice with ice-cold PBS (1 mL), the supernatant was removed, and the pellet was kept on ice. […]

[2] = test system: proteins of HEK293T cell lysates (cytosolic/nuclear, EDTA/Mg2+); assay: Proteome-wide KDapp, all four lysate preparations together; assay type: binding, human; conditions: Mg^2+ ions present; read-out: KD^app values of the top 50 proteins
PPIP5K2 = biological target: T3, PPIP5K2 (Homo sapiens, UniProt O43314); assay: KDapp by affinity enrichment/TMT-MS; assay type: binding; conditions: in the presence of Mg^2+ ions, cytosolic dataset
T3 construct: endogenous in cells; host or cells: HEK293T cytosolic fraction (Mg2+)
T3 sequence (O43314 1-1243): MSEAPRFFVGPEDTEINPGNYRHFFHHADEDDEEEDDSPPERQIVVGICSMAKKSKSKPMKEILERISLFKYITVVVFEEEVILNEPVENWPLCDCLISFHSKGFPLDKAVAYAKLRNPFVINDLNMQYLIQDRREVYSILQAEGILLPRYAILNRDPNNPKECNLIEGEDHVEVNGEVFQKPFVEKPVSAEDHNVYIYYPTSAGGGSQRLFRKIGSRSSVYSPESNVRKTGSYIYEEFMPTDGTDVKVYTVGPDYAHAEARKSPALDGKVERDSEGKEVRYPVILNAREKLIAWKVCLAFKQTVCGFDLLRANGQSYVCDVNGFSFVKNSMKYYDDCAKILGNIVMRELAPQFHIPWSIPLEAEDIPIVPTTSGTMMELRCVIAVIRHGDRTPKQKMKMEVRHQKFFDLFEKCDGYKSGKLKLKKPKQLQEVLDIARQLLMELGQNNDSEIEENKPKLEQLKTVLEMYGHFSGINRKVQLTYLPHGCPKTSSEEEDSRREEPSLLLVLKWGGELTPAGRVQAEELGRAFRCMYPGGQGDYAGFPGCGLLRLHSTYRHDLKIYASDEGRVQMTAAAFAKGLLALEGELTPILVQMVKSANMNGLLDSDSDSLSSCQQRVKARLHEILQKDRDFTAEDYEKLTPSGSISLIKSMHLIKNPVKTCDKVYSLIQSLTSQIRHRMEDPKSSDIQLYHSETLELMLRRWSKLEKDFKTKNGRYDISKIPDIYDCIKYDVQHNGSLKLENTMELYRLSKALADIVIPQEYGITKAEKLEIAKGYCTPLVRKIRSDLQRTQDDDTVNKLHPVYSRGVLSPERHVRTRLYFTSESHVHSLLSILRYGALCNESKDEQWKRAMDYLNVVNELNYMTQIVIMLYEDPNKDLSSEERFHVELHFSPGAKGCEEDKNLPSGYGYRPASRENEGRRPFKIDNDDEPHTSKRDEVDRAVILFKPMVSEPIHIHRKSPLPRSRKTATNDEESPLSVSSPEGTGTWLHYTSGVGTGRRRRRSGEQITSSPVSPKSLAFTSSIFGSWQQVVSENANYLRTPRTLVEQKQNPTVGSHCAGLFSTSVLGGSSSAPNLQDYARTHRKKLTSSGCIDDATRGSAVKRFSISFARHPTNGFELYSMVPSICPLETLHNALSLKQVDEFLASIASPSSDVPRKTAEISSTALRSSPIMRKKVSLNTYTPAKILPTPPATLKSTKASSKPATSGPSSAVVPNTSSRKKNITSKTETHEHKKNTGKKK
Experimental: as §1, §2

PDAP1 = biological target: T4, PDAP1 (Homo sapiens, UniProt Q13442); assay: KDapp by affinity enrichment/TMT-MS; assay type: binding; conditions: Mg^2+(cyto) HEK293T lysate; read-out: KD^app
T4 construct: endogenous in cells; host or cells: HEK293T cytosolic fraction
T4 sequence (Q13442 1-181): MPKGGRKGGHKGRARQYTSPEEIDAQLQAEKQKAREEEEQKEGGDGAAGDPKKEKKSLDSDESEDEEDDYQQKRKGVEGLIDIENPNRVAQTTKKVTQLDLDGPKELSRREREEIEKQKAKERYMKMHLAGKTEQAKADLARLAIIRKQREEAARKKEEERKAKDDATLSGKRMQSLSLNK
Experimental: as §1, §2

POLR2I = biological target: T5, POLR2I (Homo sapiens, UniProt P36954); assay: KDapp by affinity enrichment/TMT-MS; conditions: binding curve, Supplementary Fig. 9
T5 construct: endogenous in cells; host or cells: HEK293T lysate fraction

Structure (SMILES): O=P(O)(O)O[C@@H]1[C@@H](OP(=O)(O)O)[C@H](OP(=O)(O)OP(=O)(O)O)[C@@H](OP(=O)(O)O)[C@H](OP(=O)(O)OP(=O)(O)O)[C@@H]1OP(=O)(O)O [1,5(PP)2-InsP4, bis-1,5-diphosphoinositol tetrakisphosphate]
in vitro binding affinity to XPR1 (XPR1): highest | fraction adopting the flipped conformation [1]: ~30%

Kd (PMVK): 9500 ± 1000 nM
Structure (SMILES): O=P(O)(O)O[C@H]1[C@@H](OP(=O)(O)O)[C@H](OP(=O)(O)O)[C@@H](OP(=O)(O)OP(=O)(O)O)[C@H](OP(=O)(O)O)[C@H]1OP(=O)(O)O [5PP-InsP5, 5-diphosphoinositol pentakisphosphate]

Kd (PMVK): 4000 ± 300 nM
Structure (SMILES): O=P(O)(O)O[C@H]1[C@H](OP(=O)(O)O)[C@@H](OP(=O)(O)O)[C@H](OP(=O)(O)O)[C@@H](OP(=O)(O)O)[C@H]1OP(=O)(O)O [InsP6, inositol hexakisphosphate]

Kd (MMTAG2): 1900 nM | binding to PPIP5K2 (binding curves) (PPIP5K2): tight binding | Kd (PDAP1): 600 nM | binding to POLR2I (POLR2I): strong binding
Structure (SMILES): O=C(CCCC[C@@H]1SC[C@@H]2NC(=O)N[C@@H]21)NCCOCCOCCOCCOCCOP(=O)(O)O[C@@H]1[C@@H](OP(=O)(O)O)[C@H](OP(=O)(O)CP(=O)(O)O)[C@@H](OP(=O)(O)O)[C@H](OP(=O)(O)CP(=O)(O)O)[C@@H]1OP(=O)(O)O [b-1,5(PCP)2-InsP4]
Kd [2]: < 1000 nM
